Data set [1] in a line: Inhibition of recombinant FGFR3/BAIAP2L1 (unknown origin) transduced in mouse BaF3 cells incubated for 48 hrs by Cell Titer Glo assay. Type of data set: cell-based. To be noted: BaF3, 48 h. Background: ATP-based viability assays read luminescence as a measure of living cells.
Data set [2] in a line: Inhibition of recombinant BCR/FGFR1 (unknown origin) transduced in mouse BaF3 cells incubated for 48 hrs by Cell Titer Glo assay. The format is cell-based. To be noted: BaF3, 48 h.
Data set [3] is described as follows: Inhibition of recombinant BCR/FGFR2 (unknown origin) transduced in mouse BaF3 cells incubated for 48 hrs by Cell Titer Glo assay. To be noted: BaF3, 48 h. Type of data set: cell-based.
A short description of data set [4]: Inhibition of recombinant BCR/FGFR4 (unknown origin) transduced in mouse BaF3 cells incubated for 48 hrs by Cell Titer Glo assay. The following applies: BaF3, 48 h. The format is cell-based.
A short description of data set [5]: Stability in human hepatocytes assessed as half life at 1 uM incubated upto 180 mins by LC-MS/MS analysis. The format is ADME, cell-based, Hepatocyte.
Data set [6] deals with RT112/84. Briefly: cells. The format is functional, cell-based. To be noted: Homo sapiens.
Description: Inhibition of cell viability in human RT112/84 cells harboring FGFR3/TACC3 fusion incubated for 72 to 120 hrs by Cell Titer Glo assay
Data set [7] relates to RT112/84. The data set can be described thus: cells. The format is functional, cell-based. To be noted: Homo sapiens. The source holds these as a separate data set.
Description: Inhibition of cell viability in human RT112/84 cells harboring FGFR3 V555M mutant incubated for 72 to 120 hrs by Cell Titer Glo assay
A short description of data set [8]: Inhibition of cell viability in human UMUC14 cells harboring FGFR3 S249C mutant incubated for 72 to 120 hrs by Cell Titer Glo assay. The format is functional, cell-based.
Another data set relates to KG-1. The data set can be described thus: Inhibition of cell viability in human KG-1 cells harboring FGFR1-fusion incubated for 72 to 120 hrs by Cell Titer Glo assay. Type of data set: functional, cell-based.
Data set [9] deals with RT112/84. Briefly: Antitumor activity against human RT112/84 cells harboring FGFR3/TACC3 fusion xenografted in Balb/c nude mouse model at 15 mg/kg, po bid treated for 21 days relative to control. Type of data set: functional. To be noted: for inhibition in vivo at 15 mg/kg: RT112/84, 504 h, time 21 day, read-out: TGI. (In general: Xenograft models place foreign cells or tissue in a host animal.)

Data set [10] is described as follows: Inhibition of cell viability in human UMUC14 cells harboring FGFR3 V555M mutant incubated for 72 to 120 hrs by Cell Titer Glo assay. The format is functional, cell-based.
The test system of a further data set is RT-4. The data set can be described thus: Inhibition of cell viability in human RT-4 cells harboring FGFR3/TACC3 fusion incubated for 72 to 120 hrs by Cell Titer Glo assay. Type of data set: functional, cell-based.
The subject of the next data set is DMS-114. Briefly: Inhibition of cell viability in human DMS-114 cells harboring FGFR1-amplification incubated for 72 to 120 hrs by Cell Titer Glo assay. Type of data set: functional, cell-based.
The test system of data set [11] is RT112/84. Briefly: animal or person. Type of data set: functional, Homo sapiens. The following applies: Mus musculus, RT112/84, 504 h, route po, time 21 day, read-out: TGI.
Description: Antitumor activity against human RT112/84 cells harboring FGFR3/TACC3 fusion xenografted in Balb/c nude mouse model at 12.5 mg/kg, po bid treated for 21 days relative to control
For data set [12], the system named is RT112/84. Briefly: animal or person. The format is functional, Homo sapiens. The following applies: Mus musculus, RT112/84, 504 h, route po, time 21 day, read-out: TGI. This is another data set of the same source.
Description: Antitumor activity against human RT112/84 cells harboring FGFR3 V555M mutant xenografted in Balb/c nude mouse model at 12.5 mg/kg, po bid treated for 21 days relative to control

pIC50: −log10 of the molar value. Activity calls are given as the source filed them. The calls are words filed in the database; no cut-off is given here.

Broadly, the pIC50 is the negative decadic logarithm of the IC50, by convention in mol/L. For orientation: half-life means how long it takes for the measured level to halve. `C[C@@H](Oc1ccc2[nH]nc(-c3ccc(N4CC5(CCN(S(C)(=O)=O)CC5)C4)nc3)c2c1)c1c(Cl)cncc1Cl`: the negative logarithm of the IC50 (pIC50) in [1] is 7.85; in data set [2], 6.67; in data set [3], 6.90; in data set [4], 6.83; in the data set on RT112/84 [6], 7.82; with RT112/84 [7], 7.38. For the same compound, the pIC50 was 7.82 in data set [8] and 5.80 in the data set with KG-1. The half-life at 1 µM in data set [5] is greater than 1.67 h. In addition, in the data set on RT112/84 [9], the inhibition in vivo at 15 mg/kg turned out to be 64%.
Regarding `C[C@@H](Oc1ccc2[nH]nc(-c3ccc(N4CC5(CCN(S(C)(=O)=O)C5)C4)nc3)c2c1)c1c(Cl)cncc1Cl`, the pIC50 in [1] is 7.80; in [2], 6.40; in data set [3], 6.65; in data set [4], 6.75; in the data set with RT112/84 [6], 7.89; in the data set on RT112/84 [7] it was 7.44. In addition, the negative logarithm of the IC50 (pIC50) in data set [8] was 7.89; with KG-1 it was 6.69. The half-life at 1 µM in data set [5] is greater than 1.67 h. In addition, in the data set with RT112/84 [9], the inhibition in vivo at 15 mg/kg is 22%.
Regarding `C[C@@H](Oc1ccc2[nH]nc(-c3ccc(N4CC5(CCS(=O)(=O)C5)C4)nc3)c2c1)c1c(Cl)cncc1Cl`, the pIC50 in data set [1] was 8.49; in data set [2], 6.98; in data set [3] it was 6.95; in [4] it was 6.97; in the data set with RT112/84 [6] it was 8.04; in the data set with RT112/84 [7], 7.66. Also, the pIC50 in [8] was 8.00; with KG-1, 7.08. Also, the half-life at 1 µM in data set [5] is 1.7 h. In addition, the inhibition in vivo at 15 mg/kg in the data set with RT112/84 [9] was found to be 56%.
As to `C[C@@H](Oc1ccc2[nH]nc(-c3cnc(N4CC5(C4)CN(S(C)(=O)=O)C5)nc3)c2c1)c1c(Cl)cncc1Cl`, the negative-log IC50 (pIC50) is 7.52 in data set [1], 6.06 in [2], 6.31 in data set [3] and 6.89 in data set [4]. The half-life at 1 µM in [5] turned out to be 2.2 h. Besides, the result in the data set on RT112/84 [9] (time 21.0 day) was inactive.
As for `COc1cc(OC)cc(N(CCNC(C)C)c2ccc3ncc(-c4cnn(C)c4)nc3c2)c1` [ERDAFITINIB], the negative logarithm of the IC50 (pIC50) in data set [1] was 8.59; in data set [2] it was 8.28; in data set [3] it was 8.42; in data set [4] it was 7.96; in the data set with RT112/84 [6], 8.44; with RT112/84 [7] it was 5.67. Also, the pIC50 in data set [8] is 8.42; in [10], less than 5.52; in the data set with RT-4 it was 8.36; in the data set on KG-1, 8.68; in the data set with DMS-114, 7.96. The figures for the inhibition in vivo at 12.5 mg/kg in the data set with RT112/84 [11] and in the data set with RT112/84 [12] were 73% and 12%, respectively.
In the case of `C[C@@H](Oc1ccc2[nH]nc(-c3ccc(N4CC5(C4)CN(S(C)(=O)=O)C5)nc3)c2c1)c1c(Cl)cnnc1Cl`, the pIC50 is 8.07 in data set [1]; 6.75 in [2]; 7.17 in data set [3]; 7.42 in the data set with RT112/84 [6]; 7.05 in the data set on RT112/84 [7]; 5.80 in [8]. Moreover, the values for the negative-log IC50 (pIC50) in the data set with RT-4, in the data set with KG-1 and in the data set with DMS-114 were 6.84, 6.71 and 5.52, respectively. For the same compound, in [5], the half-life at 1 µM was 0.3 h.
For the compound `C[C@@H](Oc1ccc2[nH]nc(-c3ccc(N4CC5(CCS(=O)(=O)CC5)C4)nc3)c2c1)c1c(Cl)cncc1Cl`, the pIC50 in [1] was 7.96; in data set [2] it was 6.89; in data set [3], 6.88; in data set [4] it was 6.77; in the data set on RT112/84 [6], 8.08; in the data set on RT112/84 [7], 7.77. For the same compound, the negative-log IC50 (pIC50) in data set [8] was 8.00; in the data set on KG-1, 6.48. Further, the half-life at 1 µM in data set [5] came to 1.43 h. Also, the inhibition in vivo at 15 mg/kg in the data set with RT112/84 [9] was determined as 76%.
With `C[C@@H](Oc1ccc2[nH]nc(-c3ccc(N4CC5(C4)CN(S(C)(=O)=O)C5)nn3)c2c1)c1c(Cl)cncc1Cl`, the pIC50 was 8.06 in data set [1]; 6.69 in data set [2]; 6.65 in [3]; 6.56 in [4]; 7.57 with RT112/84 [6]; 7.47 in data set [8]. In the data set with KG-1, this compound gave a negative logarithm of the IC50 (pIC50) of 6.62. The half-life at 1 µM in [5] is greater than 1.67 h.

Source of the values: ChEMBL document CHEMBL5579895, “Discovery of TYRA-300: First Oral Selective FGFR3 Inhibitor for the Treatment of Urothelial Cancers and Achondroplasia” (J Med Chem, 2024).
